Data on 27 compounds can be found in US20250099407A1, “2-AMINO BENZOPHENONE DERIVATIVES FOR TARGETED FERROPTOSIS INDUCTION IN CANCER THERAPY” (INDIAN INSTITUTE OF TECHNOLOGY KANPUR, priority 2023, published 2025).

A word on the EC50: it is the midpoint of the concentration-response curve.

SMILES strings stand for the structures.

One assay concerns Huh-7 cells. Kind of assay: Cell viability, luminescence-based CellTiter-Glo assay, Huh-7 cells. The settings on record: Homo sapiens, Huh-7, Huh-7 cells, cell viability; read-out: EC50 Huh-7. The method, then: The viability of Huh-7 cells was recorded using a luminescence-based CellTiter-Glo® assay. The screening concentration of the molecules were 10 μM with or without Fer-1 (10 μM) in DMEM media (>0.1% DMSO as control).
Ferroptosis is a unique form of cell death mechanism mediated by the accumulation of lipid peroxides in cells which is distinct from healthy cells' apoptosis, a programmed […] route. We aimed to exploit the induction of ferroptosis in cancer cells using covalent small molecules as a potential strategy for cancer therapeutic development. […] We used various amide bond formation chemistry to construct the library members and these molecules are well characterized by various spectroscopic and mass spectrometry techniques. Once confirmed, these thiol reactive library members were screened in a cancer cell viability assay in combination with ferrostatin-1 (Fer-1), a ferroptosis inhibitor as depicted in FIG. 11. […] We have screened a total of ˜50 electrophilic small molecules to prevent the proliferation of hepatocellular carcinoma (Huh-7 cells) in combination with and without Fer-1. From our initial screening, we identified haloacetamides of 2-aminoalkylbenzophenone as potential ferroptosis inducers as depicted in FIG. 11.
(§1) The viability of screened cancer cells was recorded using a luminescence-based CellTiter-Glo® assay for the ATP quantification. The screening concentration of the molecule ranged from 100/10 μM to 45/4.5 nM with an 8-point-3-fold dilution series in DMEM media (>0.1% DMSO as control). Each experiment was conducted in more than two biological replicates with three technical replicates. The error bar is a representation of standard deviation among the technical replicates.
The viability of screened cancer cells was recorded using a luminescence-based CellTiter-Glo® assay for the ATP quantification. The screening concentration of IITK3002 ranged from 10 μM to 4.5 nM with an 8-point-3-fold dilution series in DMEM media (>0.1% DMSO as control). Each experiment was conducted in more than two biological replicates with three technical replicates. The error bar is a representation of standard deviation among the technical replicates. […]
a. Electrophilic Warhead Optimization: Once we identified 2-benzoylphenyl-a-haloacetamide as the lead scaffold, we have investigated the structure-activity-relationship analysis to precisely capture the effect of various chemical handles of the scaffold and use the knowledge to improve the overall potency and selectivity of this molecule to prevent cancer cell proliferation. First, we changed the haloacetamide electrophilic unit with various other electrophiles with a characteristic high, moderate, and weak reactivity with thiols when compared to chloroacetamide. Therefore, we opted vinylsulfonamide (highly reactivity), acrylamide (moderate reactivity), and phenoxyacetamides (weak reactivity warheads) for incorporation in the place of haloacetamide warhead of the top hit scaffold. Once synthesized, these molecules were evaluated to assess their antiproliferative potency against Huh-7 cells (Table 2). As expected, the introduction of weakly reactive electrophilic warheads, phenoxyactamides, completely lost the activity against Huh-7 cells. […] Perhaps, the secondary interactions of the electrophilic warhead with the target proteins might play additional roles. Therefore, we shifted our focus to optimize the rest of the core scaffold for further SAR analysis. b. Role of N-Substitutions: Next, we synthesized the NH-derivative of haloacetamides to capture the importance of N-alkylation on the activity of our hit molecule. […] Perhaps the hydrogen bonding induced planarity around the warhead influences the molecules' weakened potency. Conversely, the additional flexibility in the lead molecule (tertiary amide) might contribute to the strong antiproliferative activity of the hit molecule. […]
A general note: ATP-based viability assays read luminescence as a measure of living cells.

Another assay deals with U2OS. Kind of assay: Cell viability, CellTiter-Glo assay, U2OS. It counts as cell-based. The settings on record: Homo sapiens. As to the method: as §1
(§2) The viability of screened cancer cells was recorded using a luminescence-based CellTiter-Glo® assay for the ATP quantification. The screening concentration of IITK3002 ranged from 10 μM to 4.5 nM with an 8-point-3-fold dilution series in DMEM media (>0.1% DMSO as control). Each experiment was conducted in more than two biological replicates with three technical replicates. The error bar is a representation of standard deviation among the technical replicates.
(§3) a. […] In parallel, we have also synthesized the bromoacetamide (IITK3002) version of the lead molecules which is slightly more reactive with thiol nucleophiles when compared to chlorooacetamide warheads as depicted in FIG. 13. […] In addition, we also evaluated the molecules' antiproliferative potency against a panel of twelve different cancer phenotypes. The set of cancer cell lines included liver, breast, colon, myeloma, bone, blood, skin, brain and prostate lineages (FIG. 2, 3, Table 1).

The test system of a further assay is PC3. Kind of assay: Cell viability, CellTiter-Glo assay, PC3. The settings on record: Homo sapiens, PC-3, PC3, cell viability. The assay is classed as cell-based. The method, then:
as §1, §2, §3

The subject of a further assay is 22Rv1. Kind of assay: Cell viability, CellTiter-Glo assay, 22Rv1. The assay is classed as cell-based. The settings on record: Homo sapiens, 22Rv1, 22Rv1, cell viability. As to the method: as §1, §2, §3
In another assay the test system is A549. The assay is described as follows: Cell viability, A549. The assay is classed as cell-based. The note with it: Homo sapiens.

As for `CN(C(=O)COc1ccc(F)cc1)c1ccccc1C(=O)c1ccccc1` [IITK3006, N-(2-benzoylphenyl)-2-(4-fluorophenoxy)-N-methylacetamide], the EC50 in the assay on Huh-7 cells, in the assay on U2OS, in the assay on PC3, with 22Rv1 and with A549 was more than 20 µM in each case.
Consider `CN(C(=O)COc1ccc(C(C)(C)C)cc1)c1ccccc1C(=O)c1ccccc1` [IITK3008, N-(2-benzoylphenyl)-2-(4-(tert-butyl)phenoxy)-N-methylacetamide], for which the EC50 in the assay on Huh-7 cells is more than 20 µM; in the assay with PC3 it was 12.8 µM.
As for `CN(C(=O)COc1ccc(Br)cc1)c1ccccc1C(=O)c1ccccc1` [IITK3009, N-(2-benzoylphenyl)-2-(4-bromophenoxy)-N-methylacetamide], the EC50 in the assay with Huh-7 cells, with U2OS, in the assay on PC3, in the assay on 22Rv1 and in the assay on A549 was more than 20 µM in each case.
Regarding `C=CC(=O)N(C)c1ccccc1C(=O)c1ccccc1` [IITK3010, N-(2-benzoylphenyl)-N-methylacrylamide], the EC50 in the assay with U2OS, in the assay with PC3, with 22Rv1 and in the assay with A549 was more than 20 µM in each case.
As for `C=CS(=O)(=O)N(C)c1ccccc1C(=O)c1ccccc1` [IITK3011, N-(2-benzoylphenyl)-N-methylethenesulfonamide], the EC50 in the assay with U2OS, in the assay with PC3, with 22Rv1 and in the assay on A549 was more than 20 µM each time.
Consider `O=C(CCl)Nc1ccccc1C(=O)c1ccccc1` [IITK3012, N-(2-benzoylphenyl)-2-chloroacetamide], for which the EC50 in the assay with U2OS, in the assay on PC3, with 22Rv1 and in the assay on A549 was more than 20 µM each time.
For the compound `O=C(CBr)Nc1ccccc1C(=O)c1ccccc1` [IITK3013, N-(2-benzoylphenyl)-2-bromoacetamide], in the assay on U2OS, the EC50 is 1.52 µM.
For `O=C(COc1ccccc1)Nc1ccccc1C(=O)c1ccccc1` [IITK3014, N-(2-benzoylphenyl)-2-phenoxyacetamide], the EC50 in the assay on Huh-7 cells and in the assay on U2OS was more than 20 µM throughout.
Consider `C=CCN(C(=O)CCl)c1ccccc1C(=O)c1ccccc1` [IITK3018, N-allyl-N-(2-benzoylphenyl)-2-chloroacetamide], for which the 50% effective concentration (EC50) in the assay on U2OS was 0.6 µM; in the assay with A549, 2.4 µM.
For the compound `C=CCN(C(=O)CBr)c1ccccc1C(=O)c1ccccc1` [IITK3019, N-allyl-N-(2-benzoylphenyl)-2-bromoacetamide], the EC50 in the assay on U2OS stood at 0.03 µM; in the assay on A549 it was 0.3 µM.
With `C=CCN(C(=O)COc1ccccc1)c1ccccc1C(=O)c1ccccc1` [IITK3020, N-allyl-N-(2-benzoylphenyl)-2-phenoxyacetamide], the EC50 with U2OS, in the assay with PC3, in the assay on 22Rv1 and with A549 was more than 20 µM each time.
In the case of `C=CCN(C(=O)COc1c(F)c(F)c(F)c(F)c1F)c1ccccc1C(=O)c1ccccc1` [IITK3022, N-allyl-N-(2-benzoylphenyl)-2-(perfluorophenoxy)acetamide], the EC50 worked out at 1.45 µM in the assay with U2OS and 3.37 µM with A549.
`C=CCN(C(=O)COc1ccc(C(C)(C)C)cc1)c1ccccc1C(=O)c1ccccc1` [IITK3023, N-allyl-N-(2-benzoylphenyl)-2-(4-(tert-butyl)phenoxy)acetamide]: the EC50 in the assay on U2OS is more than 100 µM; with PC3 it was more than 20 µM; in the assay with 22Rv1, more than 20 µM; with A549, 20 µM.
Consider `C=CCN(C(=O)C=C)c1ccccc1C(=O)c1ccccc1` [IITK3026, N-allyl-N-(2-benzoylphenyl)acrylamide], for which, in the assay with A549, the midpoint of the response, the EC50, lay at 32.8 µM.
Turning to `C=CCN(c1ccccc1C(=O)c1ccccc1)S(=O)(=O)C=C` [IITK3027, N-allyl-N-(2-benzoylphenyl)ethenesulfonamide], the figures for the EC50 in the assay on U2OS and with A549 were 1.22 µM and 1.92 µM, respectively.
In the case of `O=C(c1ccccc1)c1ccccc1N(Cc1ccccc1)C(=O)CCl` [IITK3034, N-(2-benzoylphenyl)-N-benzyl-2-chloroacetamide], the half-maximal effective concentration (EC50) with 22Rv1 was 3.85 µM.
As for `O=C(c1ccccc1)c1ccccc1N(Cc1ccccc1)C(=O)CBr` [IITK3035, N-(2-benzoylphenyl)-N-benzyl-2-bromoacetamide], the EC50 came to 0.19 µM in the assay with U2OS, 0.53 µM with PC3, 0.77 µM in the assay on 22Rv1 and 0.24 µM with A549.
The corresponding values for `O=C(CBr)Nc1ccc([N+](=O)[O-])cc1C(=O)c1ccccc1` [IITK3051, N-(2-benzoyl-4-nitrophenyl)-2-bromoacetamide] are more than 20 µM, more than 20 µM, more than 20 µM and more than 20 µM.
As for `C#CCOC(=O)Nc1ccc(N(C)C(=O)CCl)c(C(=O)c2ccccc2)c1` [IITK3052, prop-2-yn-1-yl (3-benzoyl-4-(2-chloro-N-methylacetamido)phenyl)carbamate], the figures for the EC50 in the assay on Huh-7 cells, in the assay on U2OS and with A549 were 32.8 µM, 2.92 µM and 4.18 µM, respectively.
The corresponding values for `C#CCOC(=O)Nc1ccc(N(C)C(=O)CBr)c(C(=O)c2ccccc2)c1` [IITK3053, prop-2-yn-1-yl (3-benzoyl-4-(2-bromo-N-methylacetamido)phenyl)carbamate] are 11.7 µM, 0.77 µM and 1.54 µM.
Consider `CN(C(=O)CBr)c1ccccc1C(=O)c1ccc(-c2ccc(F)cc2F)cc1` [IITK3067, 2-bromo-N-(2-(2′,4′-difluoro-[1,1′-biphenyl]-4-carbonyl)phenyl)-N-methylacetamide], for which, in the assay on Huh-7 cells, the EC50 was 0.0121 µM.
On the same count and under the same terms, in the case of `CN(C(=O)CCl)c1ccccc1C(=O)c1ccc(-c2cccc([N+](=O)[O-])c2)cc1` [IITK3068, 2-chloro-N-methyl-N-(2-(3′-nitro-[1,1′-biphenyl]-4-carbonyl)phenyl)acetamide] it was 0.00306 µM; in that of `CN(C(=O)CBr)c1ccccc1C(=O)c1ccc(-c2cccc([N+](=O)[O-])c2)cc1` [IITK3069, 2-bromo-N-methyl-N-(2-(3′-nitro-[1,1′-biphenyl]-4-carbonyl)phenyl)acetamide], 0.0035 µM.
Turning to `C=CS(=O)(=O)N(C)c1ccccc1C(=O)c1ccc(-c2ccccc2)cc1` [IITK3070, N-(2-([1,1′-biphenyl]-4-carbonyl)phenyl)-N-methylethenesulfonamide], in the assay with Huh-7 cells, the EC50 came to 8.22 µM.
For `C#CCN(C(=O)CBr)c1ccccc1C(=O)c1ccc(-c2ccccc2)cc1` [IITK3071, N-(2-([1,1′-biphenyl]-4-carbonyl)phenyl)-2-bromo-N-(prop-2-yn-1-yl)acetamide], the EC50 with Huh-7 cells is less than 0.1 µM.
On the same count and under the same terms, with `C#CCN(C(=O)CCl)c1ccccc1C(=O)c1ccc(-c2ccccc2)cc1` [IITK3072, N-(2-([1,1′-biphenyl]-4-carbonyl)phenyl)-2-chloro-N-(prop-2-yn-1-yl)acetamide] the figure was more than 0.138 µM; with `CN(C(=O)CCl)c1ccc([N+](=O)[O-])cc1C(=O)c1ccccc1` [IITK3073, N-(2-benzoyl-4-nitrophenyl)-2-chloro-N-methylacetamide], more than 20 µM.
